According to patent publication US20110251428A1 (priority 2006, published 2011):
Entries after “also recorded” stand apart in the source; their conditions may differ.

What was measured:
[1] = system: yeast [PSI^+] prion; settings: cited from earlier work
[2] = system: [URE3] prion; assay type: cell-based
[3] = system: yeast [PSI^+] prion; assay type: cell-based

Compound | activity in the yeast-based method (earlier study) [1] | activity against yeast [PSI+] prion (halo of red colonies) [3] | other results
CN(C)CCCN1c2ccccc2Sc2ccc(Cl)cc21 [chlorpromazine] | active |  | 
CCN(CC)CCCC(C)Nc1c2ccc(Cl)cc2nc2ccc(OC)cc12 (stereo not drawn) [quinacrine] | active |  | 
CC(=O)O.N=C(N)N/N=C/c1c(Cl)cccc1Cl [Guanabenz acetate] |  | strongly active; also recorded: very active | activity against [URE3] prion [2]: also active; also recorded: also very active
N=C(N)N/N=C/c1c(Cl)ccc(Cl)c1Cl [PSI210] |  | strongest activity; also recorded: more potent than Guanabenz itself | 
Clc1cccc(Cl)c1N=C1NCCN1 [Clonidine] |  |  | anti-prion activity (data not shown) [3]: did not exhibit any anti-prion activity
